Experimental findings from patent US9351955B2, “Compounds and pharmaceutical compositions thereof for the treatment of cystic fibrosis” (Galapagos NV, priority 2013, dated 2016) are described below.

The term EC50 denotes the concentration that produces a half-maximal response.

SMILES strings stand for the structures.

This assay deals with T1, CFTR ΔF508 mutant (Homo sapiens, UniProt P13569, DEL508-508).
T1 construct: expressed in transfected cells; host or cells: CFBE41o- (adenoviral transduction)
T1 sequence (P13569 with tags, fused parts or gaps DEL508-508): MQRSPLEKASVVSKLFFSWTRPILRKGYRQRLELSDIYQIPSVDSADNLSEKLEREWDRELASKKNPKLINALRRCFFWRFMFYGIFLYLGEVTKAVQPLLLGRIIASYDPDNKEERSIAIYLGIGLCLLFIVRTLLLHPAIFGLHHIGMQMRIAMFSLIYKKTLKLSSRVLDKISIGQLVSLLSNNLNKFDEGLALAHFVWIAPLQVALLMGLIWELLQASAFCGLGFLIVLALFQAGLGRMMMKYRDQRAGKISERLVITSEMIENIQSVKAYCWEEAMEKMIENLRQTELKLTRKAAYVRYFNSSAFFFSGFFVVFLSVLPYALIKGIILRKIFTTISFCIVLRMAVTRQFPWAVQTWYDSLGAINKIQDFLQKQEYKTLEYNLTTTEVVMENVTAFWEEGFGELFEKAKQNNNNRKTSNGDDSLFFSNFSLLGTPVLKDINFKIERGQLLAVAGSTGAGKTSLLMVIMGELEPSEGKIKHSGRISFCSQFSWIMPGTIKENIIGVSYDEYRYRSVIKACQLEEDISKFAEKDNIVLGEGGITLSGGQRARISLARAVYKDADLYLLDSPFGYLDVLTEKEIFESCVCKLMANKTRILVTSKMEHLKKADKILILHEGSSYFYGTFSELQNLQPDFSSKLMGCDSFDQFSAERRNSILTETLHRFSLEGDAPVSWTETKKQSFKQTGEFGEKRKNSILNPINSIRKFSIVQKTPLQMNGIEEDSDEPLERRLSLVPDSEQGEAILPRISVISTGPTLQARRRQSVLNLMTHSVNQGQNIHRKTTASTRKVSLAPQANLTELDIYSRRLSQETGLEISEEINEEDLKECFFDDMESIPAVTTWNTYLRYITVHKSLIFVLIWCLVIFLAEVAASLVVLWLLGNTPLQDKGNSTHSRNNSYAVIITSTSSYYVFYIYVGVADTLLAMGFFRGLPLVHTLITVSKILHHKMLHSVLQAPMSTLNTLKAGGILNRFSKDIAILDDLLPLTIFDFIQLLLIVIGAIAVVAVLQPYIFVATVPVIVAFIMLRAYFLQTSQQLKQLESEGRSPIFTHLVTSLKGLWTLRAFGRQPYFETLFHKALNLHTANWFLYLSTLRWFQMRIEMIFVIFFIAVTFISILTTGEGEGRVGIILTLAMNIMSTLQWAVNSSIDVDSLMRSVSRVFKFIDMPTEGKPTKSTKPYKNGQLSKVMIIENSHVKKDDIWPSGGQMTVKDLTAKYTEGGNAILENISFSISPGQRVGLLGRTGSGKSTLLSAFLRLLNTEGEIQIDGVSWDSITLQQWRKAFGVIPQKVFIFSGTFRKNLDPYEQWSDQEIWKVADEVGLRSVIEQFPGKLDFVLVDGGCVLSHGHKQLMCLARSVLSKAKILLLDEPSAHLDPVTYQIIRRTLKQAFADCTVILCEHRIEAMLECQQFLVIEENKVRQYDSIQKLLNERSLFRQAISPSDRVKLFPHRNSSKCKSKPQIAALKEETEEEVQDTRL
The experiment in a line: YFP-halide influx assay for the CFTR-ΔF508 mutation (384 well, CFBE41o- cells, FDSS/μCell). It counts as cell-based. The conditions noted are these: forskolin 10.67 μM, fluorescence after 36 seconds, read-out: EC50 measured by YFP-halide influx assay for the CFTR-ΔF508. From the text: 6.2. YFP-Halide Influx Assay for the CFTR-ΔF508 Mutation
The YFP halide influx assay measures the functionality of the cystic fibrosis Transmembrane Conductance regulator (CFTR) channels in the cystic fibrosis bronchial epithelium cell line CFBE41o-. The assay is used to evaluate the capacity of compounds to increase the open probability of existing CFTR channels in the membrane. It makes use of the observation that the yellow fluorescent protein (YFP) variant YFP H148Q, I152L has its fluorescence substantially quenched by halide ions like Cl— and I— (Galietta et al., 2001; Nagai et al., 2002).
For this purpose, CFBE410-cells are seeded in 384 well plates (3000 CFBE cells/well). One day after seeding, the CFBE cells are transduced with adenoviral vectors that direct the expression of the CFTR ΔF508 mutant and of the YFP reporter. Cells are incubated at 27° C., 5% CO2 for 24 hours so as to allow for the proper folding and migration to the membrane of the CFTR channel or treated with a CFTR modulator during 24 h at 37° C.
The I— induced quenching of fluorescence is recorded […] immediately after injection of I— for 2 min on an FDSS/μCell (Hamamatsu). The capacity of a compound to increase the channel opening is directly correlated with the decrease in fluorescence, and is expressed as (1−(fluorescence after 36 seconds (F)/fluorescence before injection (F0))) and an EC50 can be derived from a (1−F/F0) vs compound concentration plot.
On to `CC1(C)Cc2c(sc(NC(=O)C3CC3F)c2C(N)=O)C(C)(C)O1` (single isomer, unassigned) [Compound 43, Cis-2-[[2-fluorocyclopropanecarbonyl]amino]-5,5,7,7-tetramethyl-4H-thieno[2,3-c]pyran-3-carboxamide], for which the 50% effective concentration (EC50) is 0.495 µM.

As to `CC1(C)Cc2c(sc(NC(=O)C3CC3F)c2C(N)=O)C(C)(C)O1` (single isomer, unassigned) [Compound 44, Cis-2-[[2-fluorocyclopropanecarbonyl]amino]-5,5,7,7-tetramethyl-4H-thieno[2,3-c]pyran-3-carboxamide], the EC50 was found to be 0.276 µM.

For `COCC(C)(O)C(=O)Nc1sc2c(c1C(N)=O)CC(C)(C)OC2(C)C` (single isomer, unassigned) [Compound 165, 2-[[2-hydroxy-3-methoxy-2-methyl-propanoyl]amino]-5,5,7,7-tetramethyl-4H-thieno[2,3-c]pyran-3-carboxamide], the EC50 was found to be 0.145 µM.

`COCC(C)(O)C(=O)Nc1sc2c(c1C(N)=O)CC(C)(C)OC2(C)C` (single isomer, unassigned) [Compound 166]: the 50% effective concentration (EC50) came out at 0.116 µM.

For `CCOc1cc(C(=O)Nc2sc3c(c2C(N)=O)CC(C)(C)OC3(C)C)n[nH]1` [Compound 54, 5-Ethoxy-1H-pyrazole-3-carboxylic acid (3-carbamoyl-5,5,7,7-tetramethyl-4,7-dihydro-5H-thieno[2,3-c]pyran-2-yl)-amide], the 50% effective concentration (EC50) was 0.00851 µM.

As to `CC(C)(O)CC(=O)Nc1sc2c(c1C(N)=O)CC(C)(C)OC2(C)C` [Compound 56, 2-[(3-hydroxy-3-methyl-butanoyl)amino]-5,5,7,7-tetramethyl-4H-thieno[2,3-c]pyran-3-carboxamide], the half-maximal effective concentration (EC50) came out at 0.0793 µM.

For `CC(O)CC(=O)Nc1sc2c(c1C(N)=O)CC(C)(C)OC2(C)C` (stereo not drawn) [Compound 58, 2-(3-hydroxybutanoylamino)-5,5,7,7-tetramethyl-4H-thieno[2,3-c]pyran-3-carboxamide], the 50% effective concentration (EC50) was 0.178 µM.

In the case of `CC1(C)Cc2c(sc(NC(=O)[C@H]3C[C@@H]3CO)c2C(N)=O)C(C)(C)O1` [Compound 83, 2-[[(1S,2S)-2-(hydroxymethyl)cyclopropanecarbonyl]amino]-5,5,7,7-tetramethyl-4H-thieno[2,3-c]pyran-3-carboxamide], the concentration for a half-maximal effect (EC50) amounted to 0.644 µM.

For the compound `CCC(CO)C(=O)Nc1sc2c(c1C(N)=O)CC(C)(C)OC2(C)C` (stereo not drawn) [Compound 86, 2-[2-(hydroxymethyl)butanoylamino]-5,5,7,7-tetramethyl-4H-thieno[2,3-c]pyran-3-carboxamide], the EC50 was 0.16 µM.

Take `CC1(C)Cc2c(sc(NC(=O)C(CO)C(C)(C)C)c2C(N)=O)C(C)(C)O1` (stereo not drawn) [Compound 89, 2-[[2-(hydroxymethyl)-3,3-dimethyl-butanoyl]amino]-5,5,7,7-tetramethyl-4H-thieno[2,3-c]pyran-3-carboxamide]: the 50% effective concentration (EC50) came out at 0.313 µM.

On to `CC1(C)Cc2c(sc(NC(=O)C3(CO)CC3(C)C)c2C(N)=O)C(C)(C)O1` (stereo not drawn) [Compound 91, 2-[[1-(hydroxymethyl)-2,2-dimethyl-cyclopropanecarbonyl]amino]-5,5,7,7-tetramethyl-4H-thieno[2,3-c]pyran-3-carboxamide], for which the EC50 was determined as 0.0641 µM.

In the case of `CC1(C)Cc2c(sc(NC(=O)C3CCC(=O)N3)c2C(N)=O)C(C)(C)O1` (stereo not drawn) [Compound 107, N-(3-carbamoyl-5,5,7,7-tetramethyl-4H-thieno[2,3-c]pyran-2-yl)-5-oxo-pyrrolidine-2-carboxamide], the EC50 worked out at 0.387 µM.

Regarding `Cn1ncc(C(=O)Nc2sc3c(c2C(N)=O)CC(C)(C)OC3(C)C)c1C(F)F` [Compound 118, N-(3-carbamoyl-5,5,7,7-tetramethyl-4H-thieno[2,3-c]pyran-2-yl)-5-(difluoromethyl)-1-methyl-pyrazole-4-carboxamide], the EC50 stood at 0.303 µM.

Turning to `Cc1csc(C(=O)Nc2sc3c(c2C(N)=O)CC(C)(C)OC3(C)C)n1` [Compound 131, N-(3-carbamoyl-5,5,7,7-tetramethyl-4H-thieno[2,3-c]pyran-2-yl)-4-methyl-thiazole-2-carboxamide], the 50% effective concentration (EC50) is 0.168 µM.

Consider `CC1(C)Cc2c(sc(NC(=O)c3cnccn3)c2C(N)=O)C(C)(C)O1` [Compound 138, N-(3-carbamoyl-5,5,7,7-tetramethyl-4H-thieno[2,3-c]pyran-2-yl)pyrazine-2-carboxamide], for which the EC50 is 0.0522 µM.

Turning to `Cc1noc(C)c1C(=O)Nc1sc2c(c1C(N)=O)CC(C)(C)OC2(C)C` [Compound 140, N-(3-carbamoyl-5,5,7,7-tetramethyl-4H-thieno[2,3-c]pyran-2-yl)-3,5-dimethyl-isoxazole-4-carboxamide], the concentration giving a half-maximal response (EC50) is 0.144 µM.

As to `Cc1ccn2c(=O)c(C(=O)Nc3sc4c(c3C(N)=O)CC(C)(C)OC4(C)C)cnc2c1` [Compound 144, N-(3-carbamoyl-5,5,7,7-tetramethyl-4H-thieno[2,3-c]pyran-2-yl)-8-methyl-4-oxo-pyrido[1,2-a]pyrimidine-3-carboxamide], the EC50 was determined as 0.472 µM.

For `CC1(C)Cc2c(sc(NC(=O)c3cnc4c(c3)OCCO4)c2C(N)=O)C(C)(C)O1` [Compound 145, N-(3-carbamoyl-5,5,7,7-tetramethyl-4H-thieno[2,3-c]pyran-2-yl)-2,3-dihydro-[1,4]dioxino[2,3-b]pyridine-7-carboxamide], the half-maximal effective concentration (EC50) was determined as 0.153 µM.

In the case of `Cc1oncc1C(=O)Nc1sc2c(c1C(N)=O)CC(C)(C)OC2(C)C` [Compound 146, N-(3-carbamoyl-5,5,7,7-tetramethyl-4H-thieno[2,3-c]pyran-2-yl)-5-methyl-isoxazole-4-carboxamide], the 50% effective concentration (EC50) stood at 0.202 µM.

In the case of `CC1(C)Cc2c(sc(NC(=O)C3(C)COC3)c2C(N)=O)C(C)(C)O1` [Compound 147, 5,5,7,7-tetramethyl-2-[(3-methyloxetane-3-carbonyl)amino]-4H-thieno[2,3-c]pyran-3-carboxamide], the 50% effective concentration (EC50) came to 0.169 µM.

Take `Cc1cc2nnc(C(=O)Nc3sc4c(c3C(N)=O)CC(C)(C)OC4(C)C)c(C)n2n1` [Compound 149, N-(3-carbamoyl-5,5,7,7-tetramethyl-4H-thieno[2,3-c]pyran-2-yl)-4,7-dimethyl-pyrazolo[5,1-c][1,2,4]triazine-3-carboxamide]: the 50% effective concentration (EC50) worked out at 0.346 µM.

As for `C[C@H](O)C(=O)Nc1sc2c(c1C(N)=O)CC(C)(C)OC2(C)C` [Compound 153, 2-[[(2S)-2-hydroxypropanoyl]amino]-5,5,7,7-tetramethyl-4H-thieno[2,3-c]pyran-3-carboxamide], the EC50 amounted to 0.0339 µM.

Consider `COCC(C)(O)C(=O)Nc1sc2c(c1C(N)=O)CC(C)(C)OC2(C)C` (stereo not drawn) [Compound 155, 2-[(2-hydroxy-3-methoxy-2-methyl-propanoyl)amino]-5,5,7,7-tetramethyl-4H-thieno[2,3-c]pyran-3-carboxamide], for which the EC50 was 0.0715 µM.

Take `CC1(C)Cc2c(sc(NC(=O)c3n[nH]c4ncccc34)c2C(N)=O)C(C)(C)O1` [Compound 157, N-(3-carbamoyl-5,5,7,7-tetramethyl-4H-thieno[2,3-c]pyran-2-yl)-1H-pyrazolo[3,4-b]pyridine-3-carboxamide]: the EC50 is 0.0331 µM.

Take `CC1(C)Cc2c(sc(NC(=O)C3CCOCC3)c2C(N)=O)C(C)(C)O1` [Compound 158, 5,5,7,7-tetramethyl-2-(tetrahydropyran-4-carbonylamino)-4H-thieno[2,3-c]pyran-3-carboxamide]: the EC50 turned out to be 0.301 µM.

For the compound `COCC(=O)Nc1sc2c(c1C(N)=O)CC(C)(C)OC2(C)C` [Compound 160, 2-[(2-methoxyacetyl)amino]-5,5,7,7-tetramethyl-4H-thieno[2,3-c]pyran-3-carboxamide], the half-maximal effective concentration (EC50) was found to be 0.641 µM.

Take `CC1(C)Cc2c(sc(NC(=O)C3CCCO3)c2C(N)=O)C(C)(C)O1` (stereo not drawn) [Compound 162, 5,5,7,7-tetramethyl-2-(tetrahydrofuran-2-carbonylamino)-4H-thieno[2,3-c]pyran-3-carboxamide]: the 50% effective concentration (EC50) came out at 0.602 µM.

For the compound `CC1(C)Cc2c(sc(NC(=O)C3CCOC3)c2C(N)=O)C(C)(C)O1` (stereo not drawn) [Compound 163, 5,5,7,7-tetramethyl-2-(tetrahydrofuran-3-carbonylamino)-4H-thieno[2,3-c]pyran-3-carboxamide], the 50% effective concentration (EC50) turned out to be 0.636 µM.

As to `COC(C)(C)C(=O)Nc1sc2c(c1C(N)=O)CC(C)(C)OC2(C)C` [Compound 164, 2-[(2-methoxy-2-methyl-propanoyl)amino]-5,5,7,7-tetramethyl-4H-thieno[2,3-c]pyran-3-carboxamide], the concentration giving a half-maximal response (EC50) amounted to 0.646 µM.

For `CC1(C)Cc2c(sc(NC(=O)C(O)C(F)(F)F)c2C(N)=O)C(C)(C)O1` (stereo not drawn) [Compound 167, 5,5,7,7-tetramethyl-2-[(3,3,3-trifluoro-2-hydroxy-propanoyl)amino]-4H-thieno[2,3-c]pyran-3-carboxamide], the concentration for a half-maximal effect (EC50) was found to be 0.00758 µM.
